The subject of assay [1] is Salmonella typhimurium. The assay is described as follows: Antibacterial activity against Salmonella Typhimurium ATCC 13311. It is filed as functional. Particulars: for Activity: Salmonella enterica subsp. enterica serovar Typhimurium; for MIC: Salmonella enterica.
The test system of assay [2] is Staphylococcus aureus. The assay is described as follows: Antibacterial activity against methicillin/gentamicin/tetracycline resistant Staphylococcus aureus ATCC 33592. The class given is functional.

Eleven compounds from ChEMBL document CHEMBL1145395, “De novo design of selective antibiotic peptides by incorporation of unnatural amino acids” (J Med Chem, 2007) can be followed below.

Structures are written as SMILES. Converted amounts (≈) assume the structure as drawn. The source made the active and inactive calls. Non-standard residues stand in square brackets, D forms with d. Residues, ends and D or L forms follow the SMILES beside them. ξ: configuration not given here. Pro(3ξ,4ξ-(CH2)4) = O=C(O)[C@H]1NCC2CCCCC21; Pro(3,4-benzo) = O=C(O)[C@H]1NCc2ccccc21; Tic = O=C(O)[C@@H]1Cc2ccccc2CN1; Orn = NCCC[C@H](N)C(=O)O; βAla = NCCC(=O)O

`CC(C)C[C@H](NC(=O)CNC(=O)[C@H](CCCCN)NC(=O)CN)C(=O)N1Cc2ccccc2C[C@H]1C(=O)N1CC2CCCCC2[C@H]1C(=O)NCC(=O)N[C@@H](CCCN)C(=O)N1Cc2ccccc2C[C@H]1C(=O)N1CC2CCCCC2[C@H]1C(=O)NCC(=O)N[C@@H](Cc1ccccc1)C(=O)N1Cc2ccccc2C[C@H]1C(=O)N1CC2CCCCC2[C@H]1C(=O)NCC(=O)N[C@@H](CCCCN)C(=O)N1Cc2ccccc2C[C@H]1C(=O)N1CC2CCCCC2[C@H]1C(=O)NCC(=O)N[C@@H](Cc1ccccc1)C(=O)N1Cc2ccccc2C[C@H]1C(=O)N1CC2CCCCC2[C@H]1C(=O)NCC(=O)N[C@@H](CCCCN)C(=O)N1Cc2ccccc2C[C@H]1C(=O)N1CC2CCCCC2[C@H]1C(=O)NCC(=O)N[C@@H](CCCCN)C(=O)N[C@@H](CCCNC(=N)N)C(N)=O` (some centres undefined) (H-GKGL[Tic][Pro(3ξ,4ξ-(CH2)4)]G[Orn][Tic][Pro(3ξ,4ξ-(CH2)4)]GF[Tic][Pro(3ξ,4ξ-(CH2)4)]GK[Tic][Pro(3ξ,4ξ-(CH2)4)]GF[Tic][Pro(3ξ,4ξ-(CH2)4)]GK[Tic][Pro(3ξ,4ξ-(CH2)4)]GKR-NH2): in assay [1], the outcome was inactive.

On to `CSCC[C@H](NC(=O)[C@H](CC(C)C)NC(=O)[C@H](CCC(=O)O)NC(=O)[C@@H]1Cc2ccccc2CN1C(=O)[C@H](CCCCN)NC(=O)CNC(=O)[C@H](CC(C)C)NC(=O)CNC(=O)[C@@H]1Cc2ccccc2CN1C(=O)[C@H](CCCCN)NC(=O)CNC(=O)[C@H](CC(C)C)NC(=O)CNC(=O)[C@@H]1Cc2ccccc2CN1C(=O)[C@H](CCSC)NC(=O)[C@H](CCCCN)NC(=O)CN)C(=O)NCC(=O)N[C@@H](CCCNC(=N)N)C(N)=O` (H-GKM[Tic]GLGK[Tic]GLGK[Tic]ELMGR-NH2), for which the result in assay [2] and in assay [1] was inactive.

For the compound `CSCC[C@H](NC(=O)[C@H](CC(C)C)NC(=O)[C@H](CCC(=O)O)NC(=O)[C@@H]1CCCN1C(=O)[C@@H]1Cc2ccccc2CN1C(=O)[C@H](CCCCN)NC(=O)CNC(=O)[C@H](CC(C)C)NC(=O)CNC(=O)[C@@H]1CCCN1C(=O)[C@@H]1Cc2ccccc2CN1C(=O)[C@H](CCCCN)NC(=O)CNC(=O)[C@H](CC(C)C)NC(=O)CNC(=O)[C@@H]1CCCN1C(=O)[C@@H]1Cc2ccccc2CN1C(=O)[C@H](CCSC)NC(=O)[C@H](CCCCN)NC(=O)CN)C(=O)NCC(=O)N[C@@H](CCCNC(=N)N)C(N)=O` (H-GKM[Tic]PGLGK[Tic]PGLGK[Tic]PELMGR-NH2), the outcome in assay [2] and in assay [1] was inactive.

Regarding `CC(C)C[C@H](NC(=O)CNC(=O)[C@H](CCCCN)NC(=O)CN)C(=O)N1Cc2ccccc2C[C@H]1C(=O)N1CC2CCCCC2[C@H]1C(=O)NCC(=O)N[C@@H](CCCCN)C(=O)N1Cc2ccccc2C[C@H]1C(=O)N1CC2CCCCC2[C@H]1C(=O)NCC(=O)N[C@@H](CC(C)C)C(=O)N1Cc2ccccc2C[C@H]1C(=O)N1CC2CCCCC2[C@H]1C(=O)NCC(=O)N[C@@H](CCCCN)C(=O)N1Cc2ccccc2C[C@H]1C(=O)N1CC2CCCCC2[C@H]1C(=O)NCC(=O)N[C@@H](CC(C)C)C(=O)N1Cc2ccccc2C[C@H]1C(=O)N1CC2CCCCC2[C@H]1C(=O)NCC(=O)N[C@@H](CCCCN)C(=O)N1Cc2ccccc2C[C@H]1C(=O)N1CC2CCCCC2[C@H]1C(=O)NCC(=O)N[C@@H](CCCCN)C(=O)N[C@@H](CCCNC(=N)N)C(N)=O` (some centres undefined) (H-GKGL[Tic][Pro(3ξ,4ξ-(CH2)4)]GK[Tic][Pro(3ξ,4ξ-(CH2)4)]GL[Tic][Pro(3ξ,4ξ-(CH2)4)]GK[Tic][Pro(3ξ,4ξ-(CH2)4)]GL[Tic][Pro(3ξ,4ξ-(CH2)4)]GK[Tic][Pro(3ξ,4ξ-(CH2)4)]GKR-NH2), the MIC (commonly the smallest concentration in the dilution series that meets the test's criterion for growth inhibition) in assay [2] turned out to be 10 µM (≈ 34.7 µg/mL); in assay [1], 100 µM (≈ 347 µg/mL).

On to `CSCC[C@H](NC(=O)[C@H](CC(C)C)NC(=O)[C@H](CCC(=O)O)NC(=O)[C@@H]1CCCN1C(=O)[C@@H]1Cc2ccccc2CN1C(=O)[C@H](CCCCN)NC(=O)CNC(=O)[C@H](CC(C)C)NC(=O)CNC(=O)[C@@H]1C2CCCCC2CN1C(=O)[C@@H]1Cc2ccccc2CN1C(=O)[C@H](CCC(=O)O)NC(=O)[C@H](CCCCN)NC(=O)CNC(=O)[C@H](CC(C)C)NC(=O)CNC(=O)[C@@H]1C2CCCCC2CN1C(=O)[C@@H]1Cc2ccccc2CN1C(=O)[C@H](CCCCN)NC(=O)CNC(C)=O)C(=O)NCC(=O)N[C@@H](CCC(=O)O)C(=O)N[C@@H](CCCNC(=N)N)C(N)=O` (some centres undefined) (Ac-GK[Tic][Pro(3ξ,4ξ-(CH2)4)]GLGKE[Tic][Pro(3ξ,4ξ-(CH2)4)]GLGK[Tic]PELMGER-NH2), for which the result in assay [2] and in assay [1] was inactive.

`CSCC[C@H](NC(=O)[C@H](CC(C)C)NC(=O)[C@H](CCC(=O)O)NC(=O)[C@@H]1CCCN1C(=O)[C@H](Cc1ccccc1)NC(=O)[C@H](CCCCN)NC(=O)CNC(=O)[C@H](CC(C)C)NC(=O)CNC(=O)[C@@H]1CCCN1C(=O)[C@H](Cc1ccccc1)NC(=O)[C@H](CCCCN)NC(=O)CNC(=O)[C@H](CC(C)C)NC(=O)CNC(=O)[C@@H]1CCCN1C(=O)[C@H](Cc1ccccc1)NC(=O)[C@H](CCSC)NC(=O)[C@H](CCCCN)NC(=O)CN)C(=O)NCC(=O)N[C@@H](CCCNC(=N)N)C(N)=O` (H-GKMFPGLGKFPGLGKFPELMGR-NH2): the outcome in assay [2] and in assay [1] was inactive.

For the compound `CSCC[C@H](NC(=O)[C@H](CC(C)C)NC(=O)[C@H](CCC(=O)O)NC(=O)[C@@H]1CCCN1C(=O)[C@@H]1C2CCCCC2CN1C(=O)[C@H](CCCCN)NC(=O)CNC(=O)[C@H](CC(C)C)NC(=O)CNC(=O)[C@@H]1CCCN1C(=O)[C@@H]1C2CCCCC2CN1C(=O)[C@H](CCCCN)NC(=O)CNC(=O)[C@H](CC(C)C)NC(=O)CNC(=O)[C@@H]1CCCN1C(=O)[C@@H]1C2CCCCC2CN1C(=O)[C@H](CCSC)NC(=O)[C@H](CCCCN)NC(=O)CN)C(=O)NCC(=O)N[C@@H](CCCNC(=N)N)C(N)=O` (some centres undefined) (H-GKM[Pro(3ξ,4ξ-(CH2)4)]PGLGK[Pro(3ξ,4ξ-(CH2)4)]PGLGK[Pro(3ξ,4ξ-(CH2)4)]PELMGR-NH2), the result in assay [2] and in assay [1] was inactive.

Take `CSCC[C@H](NC(=O)[C@H](CC(C)C)NC(=O)[C@H](CCC(=O)O)NC(=O)[C@@H]1CCCN1C(=O)[C@H](Cc1ccccc1)NC(=O)[C@H](CCCCN)NC(=O)CNC(=O)[C@H](CC(C)C)NC(=O)CNC(=O)[C@H](Cc1ccccc1)NC(=O)[C@H](CCC(=O)O)NC(=O)[C@H](CCCCN)NC(=O)CNC(=O)[C@H](CC(C)C)NC(=O)CNC(=O)[C@@H]1CCCN1C(=O)[C@H](Cc1ccccc1)NC(=O)[C@H](CCSC)NC(=O)[C@H](CCCCN)NC(=O)CNC(C)=O)C(=O)NCC(=O)N[C@@H](CCC(=O)O)C(=O)N[C@@H](CCCNC(=N)N)C(N)=O` (Ac-GKMFPGLGKEFGLGKFPELMGER-NH2): the result in assay [2] and in assay [1] was inactive.

`CSCC[C@H](NC(=O)[C@H](CC(C)C)NC(=O)[C@H](CCC(=O)O)NC(=O)[C@@H]1c2ccccc2CN1C(=O)[C@@H]1Cc2ccccc2CN1C(=O)[C@H](Cc1ccccc1)NC(=O)CCNC(=O)[C@@H]1c2ccccc2CN1C(=O)[C@@H]1Cc2ccccc2CN1C(=O)[C@H](CCCCN)NC(=O)CCNC(=O)[C@@H]1c2ccccc2CN1C(=O)[C@@H]1Cc2ccccc2CN1C(=O)[C@H](Cc1ccccc1)NC(=O)CCNC(=O)[C@@H]1c2ccccc2CN1C(=O)[C@@H]1Cc2ccccc2CN1C(=O)[C@H](CCCCN)NC(=O)CCNC(=O)[C@@H]1c2ccccc2CN1C(=O)[C@@H]1Cc2ccccc2CN1C(=O)[C@H](CC(C)C)NC(=O)CNC(=O)[C@H](CCCCN)NC(=O)CN)C(=O)N[C@@H](CC(N)=O)C(=O)N[C@@H](CO)C(N)=O` (H-GKGL[Tic][Pro(3,4-benzo)][βAla]K[Tic][Pro(3,4-benzo)][βAla]F[Tic][Pro(3,4-benzo)][βAla]K[Tic][Pro(3,4-benzo)][βAla]F[Tic][Pro(3,4-benzo)]ELMNS-NH2): the result in assay [2] and in assay [1] was inactive.

With `CC(C)C[C@H](NC(=O)CNC(=O)[C@H](CCCCN)NC(=O)CN)C(=O)N1Cc2ccccc2C[C@H]1C(=O)N1CC2CCCCC2[C@H]1C(=O)NCC(=O)N[C@@H](CCCCN)C(=O)N1Cc2ccccc2C[C@H]1C(=O)N1CC2CCCCC2[C@H]1C(=O)NCC(=O)N[C@@H](Cc1ccccc1)C(=O)N1Cc2ccccc2C[C@H]1C(=O)N1CC2CCCCC2[C@H]1C(=O)NCC(=O)N[C@@H](CCCCN)C(=O)N1Cc2ccccc2C[C@H]1C(=O)N1CC2CCCCC2[C@H]1C(=O)NCC(=O)N[C@@H](Cc1ccccc1)C(=O)N1Cc2ccccc2C[C@H]1C(=O)N1CC2CCCCC2[C@H]1C(=O)NCC(=O)N[C@@H](CCCCN)C(=O)N1Cc2ccccc2C[C@H]1C(=O)N1CC2CCCCC2[C@H]1C(=O)NCC(=O)N[C@@H](CCCCN)C(=O)N[C@@H](CCCNC(=N)N)C(N)=O` (some centres undefined) (H-GKGL[Tic][Pro(3ξ,4ξ-(CH2)4)]GK[Tic][Pro(3ξ,4ξ-(CH2)4)]GF[Tic][Pro(3ξ,4ξ-(CH2)4)]GK[Tic][Pro(3ξ,4ξ-(CH2)4)]GF[Tic][Pro(3ξ,4ξ-(CH2)4)]GK[Tic][Pro(3ξ,4ξ-(CH2)4)]GKR-NH2), the MIC in assay [2] worked out at 10 µM (≈ 35.4 µg/mL).

Consider `CC[C@H](C)[C@H](NC(=O)CN)C(=O)NCC(=O)N[C@@H](CCCCN)C(=O)N[C@@H](Cc1ccccc1)C(=O)N[C@@H](CC(C)C)C(=O)N[C@@H](Cc1cnc[nH]1)C(=O)N[C@@H](CO)C(=O)N[C@@H](C)C(=O)NCC(=O)N[C@@H](CCCCN)C(=O)N[C@@H](Cc1ccccc1)C(=O)NCC(=O)N[C@@H](CCCCN)C(=O)N[C@@H](C)C(=O)N[C@@H](Cc1ccccc1)C(=O)N[C@H](C(=O)NCC(=O)N[C@@H](CCC(=O)O)C(=O)N[C@H](C(=O)N[C@@H](CCSC)C(=O)N[C@@H](CCCCN)C(=O)N[C@@H](CO)C(N)=O)[C@@H](C)CC)C(C)C` [MAGAININ 1], for which the MIC in assay [1] turned out to be 30 µM (≈ 72.3 µg/mL).
